Assay: Solubility of the formulation components in water and alcohol
Type: physicochemical
Conditions: 200 proof ethanol, filtered through a 0.45 micrometer PTFE filter
Excerpt: Dyes can also be used and chosen to be soluble in both water and alcohol to produce a dark colored solution upon extraction and filtering as a visual deterrent to abuse. The formulation can include the following components listed in the Table 8 below, including a number of different dyes.

| SMILES | Alcohol Solubility (Tested) |
| --- | --- |
| CCN(Cc1cccc(S(=O)(=O)[O-])c1)c1ccc(C(=C2C=CC(=[N+](CC)Cc3cccc(S(=O)(=O)[O-])c3)C=C2)c2ccccc2S(=O)(=O)[O-])cc1.[Na+].[Na+] [FD&C Blue #1] | Yes |
| COc1cc(S(=O)(=O)[O-])c(C)cc1N=Nc1c(O)ccc2cc(S(=O)(=O)[O-])ccc12.[Na+].[Na+] [FD&C Red #40] | Yes |
| COc1ccc2c3c1O[C@H]1C(=O)CC[C@@]4(O)[C@@H](C2)N(C)CC[C@]314.Cl [Oxycodone HCl, reference compound] | Yes |

Source: patent US9707184B2, “Immediate release abuse deterrent liquid fill dosage form” (priority 2014, dated 2017)
